Test results as given in ChEMBL document CHEMBL4330164, “Propolis Components from Stingless Bees Collected on South Sulawesi, Indonesia, and Their Xanthine Oxidase Inhibitory Activity” (J Nat Prod, 2019).

Biological target: Xanthine dehydrogenase/oxidase (Bos taurus, UniProt P80457)
Assay: Inhibition of bovine milk xanthine oxidase assessed as reduction in uric acid production using xanthine as substrate after 10 mins by HPLC analysis; call rule not given here

Sequence of Xanthine dehydrogenase/oxidase (P80457 whole entry): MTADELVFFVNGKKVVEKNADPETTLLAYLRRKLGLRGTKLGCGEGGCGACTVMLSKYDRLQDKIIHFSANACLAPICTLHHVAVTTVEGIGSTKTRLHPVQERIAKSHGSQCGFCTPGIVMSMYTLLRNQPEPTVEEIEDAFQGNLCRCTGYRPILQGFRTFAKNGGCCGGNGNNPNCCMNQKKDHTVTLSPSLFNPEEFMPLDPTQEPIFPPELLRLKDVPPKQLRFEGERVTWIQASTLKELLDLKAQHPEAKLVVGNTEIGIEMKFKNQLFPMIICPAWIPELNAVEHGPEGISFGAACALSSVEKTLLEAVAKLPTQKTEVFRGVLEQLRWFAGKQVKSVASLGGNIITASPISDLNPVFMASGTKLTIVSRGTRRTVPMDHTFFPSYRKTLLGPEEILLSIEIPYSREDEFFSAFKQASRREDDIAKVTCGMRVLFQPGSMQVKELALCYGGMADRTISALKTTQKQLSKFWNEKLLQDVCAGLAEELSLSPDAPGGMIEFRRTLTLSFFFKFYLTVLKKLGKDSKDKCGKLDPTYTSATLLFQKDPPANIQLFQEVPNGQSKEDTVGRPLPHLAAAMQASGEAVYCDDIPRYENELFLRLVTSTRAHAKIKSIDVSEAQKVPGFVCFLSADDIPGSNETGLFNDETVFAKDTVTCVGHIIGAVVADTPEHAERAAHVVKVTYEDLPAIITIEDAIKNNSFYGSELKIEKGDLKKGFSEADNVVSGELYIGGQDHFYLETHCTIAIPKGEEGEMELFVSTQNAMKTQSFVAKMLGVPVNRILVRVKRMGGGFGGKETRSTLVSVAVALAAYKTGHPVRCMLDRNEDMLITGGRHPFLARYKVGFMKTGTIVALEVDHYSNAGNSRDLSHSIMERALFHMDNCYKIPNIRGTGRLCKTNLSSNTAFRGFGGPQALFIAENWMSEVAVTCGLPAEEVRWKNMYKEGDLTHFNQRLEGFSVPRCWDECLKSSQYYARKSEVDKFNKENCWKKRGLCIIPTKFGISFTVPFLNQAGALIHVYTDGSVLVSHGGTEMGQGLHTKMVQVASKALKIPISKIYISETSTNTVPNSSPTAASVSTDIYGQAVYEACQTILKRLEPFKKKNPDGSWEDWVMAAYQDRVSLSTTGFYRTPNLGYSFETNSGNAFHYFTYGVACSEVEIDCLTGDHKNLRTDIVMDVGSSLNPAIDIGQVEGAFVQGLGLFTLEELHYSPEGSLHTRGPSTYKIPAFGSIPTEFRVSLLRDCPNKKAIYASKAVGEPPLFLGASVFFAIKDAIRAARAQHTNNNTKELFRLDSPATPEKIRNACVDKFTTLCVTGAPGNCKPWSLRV

Row | inhibition (INH) (cattle, 10 min) | IC50 | SMILES
1 | Active | – | COc1cc([C@@H]2c3c(cc4c(c3OC)OCO4)C[C@@H]3COC[C@H]32)cc2c1OCO2
2 | – | 3.9 µM | COc1cc(-c2c(O)c(=O)oc3cc(O)cc(O)c23)ccc1O
